Literature values, collected in patent US9554996B2, “Compositions and methods for delivery of poorly soluble drugs” (Nanotherapeutics, Inc., priority 2007, dated 2017).
Counter-ions that a name gives are not always drawn.

Settings: water

COc1ccc2c3c1O[C@H]1C(=O)CC[C@@]4(O)[C@@H](C2)N(C)CC[C@]314 [oxycodone hydrochloride, oxycodone]
solubility at neutral pH: 100 mg/ml
